Test results: patent publication US20240277890A1, “ANTIMICROBIAL ARTICLES COMPRISING POLYURETHANE” (Amicoat AS, priority 2021, published 2024)
In brackets after ≈: the same amount, converted by molar mass.

Tests used:
[1] = tested on: Streptococcus pyogenes CS301; test: Murine skin infection model, one day topical treatment; assay type: in vivo, mice
Protocol: (§1) The skin of mice was infected with Staphylococcus aureus or Streptococcus pyogenes and subsequently given a total of three treatments at three hourly intervals. Three hours after the last treatment, skin biopsies were collected and the number of colony forming units (CFUs) present in the skin sample was determined. Results are shown in FIGS. 3, 4 and 5 expressed as the number of colony forming units per mouse.

[2] = tested on: Staphylococcus aureus FDA486; test: as above; assay type: in vivo, mice; details: cream or gel containing 2% (w/w) of compound; three topical treatments at three hourly intervals; compared to placebo
Protocol: as §1

[3] = tested on: Methicillin resistant Staphylococcus epidermidis (MRSE) strain ATCC 27626; details: ATCC 27626
[4] = tested on: Staphylococcus aureus ATCC 25923 - antibiotic-susceptible control strain
[5] = tested on: Staphylococcus epidermidis antibiotic susceptible clinical isolate
[6] = tested on: Staphylococcus aureus, strain ATCC 25923; details: ATCC 25923
[7] = tested on: Staphylococcus haemolyticus - antibiotic susceptible clinical isolate
[8] = tested on: Corynebacterium jeikeium - antibiotic-susceptible clinical isolate
[9] = tested on: Candida tropicalis ATCC750 - reference strain
[10] = tested on: Methicillin resistant Staphylococcus aureus (MRSA) strain ATCC 33591; details: ATCC 33591
[11] = tested on: Trichophyton mentagrophytes - G.R. Micro collection
[12] = tested on: Streptococcus bovis - macrolide-resistant clinical isolate
[13] = tested on: Staphylococcus epidermidis methicillin-resistant clinical isolate
[14] = tested on: EMRSA15 Staphylococcus aureus (MRSA) - SSCmec type 4; details: EMRSA15 - SSCmec type 4
[15] = tested on: Moraxella catarrhalis - reduced fluoroquinolone susceptibility clinical isolate
[16] = tested on: Corynebacterium jeikeium - multi-drug resistant clinical isolate
[17] = tested on: Moraxella catarrhalis - β-lactamase positive clinical isolate
[18] = tested on: Cryptococcus neoformans - G.R. Micro collection
[19] = tested on: HT2001254 Staphylococcus aureus (MRSA) - PVL positive; details: HT2001254 S. aureus (MRSA) PVL positive
[20] = tested on: Enterococcus gallinarum vancomycin-resistant (VanC) clinical isolate
[21] = tested on: Staphylococcus aureus ATCC 43300 - methicillin-resistant control strain
[22] = tested on: Pseudomonas aeruginosa - multi-drug resistant clinical isolate
[23] = tested on: Candida (Issatchenkia) krusei ATCC6258 - reference strain
[24] = tested on: Streptococcus agalactiae - antibiotic-susceptible clinical isolate
[25] = tested on: Staphylococcus aureus ATCC 29213 - antibiotic-susceptible control strain; details: ATCC 29213
[26] = tested on: Staphylococcus aureus - methicillin-resistant clinical isolate
[27] = tested on: EMRSA3 Staphylococcus aureus (MRSA) - SSCmec type 1; details: EMRSA3 - SSCmec type 1
[28] = tested on: Staphylococcus saprophyticus - antibiotic susceptible clinical isolate

CC(C)NC(=O)[C@H](CCCNC(=N)N)NC(=O)[C@H](Cc1c(C(C)(C)C)[nH]c2c(C(C)(C)C)cc(C(C)(C)C)cc12)NC(=O)[C@@H](N)CCCNC(=N)N [Compound 7] was tested, and the “number of CFUs in skin biopsy” value ([1]; 1% or 2% gel, three topical treatments at three hourly intervals, compared to placebo gel and bactroban) was “more effective at reducing the number of CFUs from a Streptococcus pyogenes CS 301 infection than the placebo gel or the bactroban”, the “number of CFUs in skin biopsy, 2% gel versus 1% gel” value ([1]; gel containing 2% compared to gel containing 1%) was “more effective than the gel containing only 1% of compound 7” and the “number of CFUs in skin biopsy” value [2] was “the number of CFUs was reduced”. The “MRSE (MIC)” value [3] was less than 2 µg/mL, the MIC [4] was 8 µg/mL (≈ 11 µM) and the MIC [5] was 4 µg/mL (≈ 5.51 µM). The “P. aeruginosa (MIC)” value (P. aeruginosa) was 7 µg/mL, the “S. aureus (MIC)” value [6] was less than 2 µg/mL and the MIC [7] was 4 µg/mL (≈ 5.51 µM). For the same molecule, the MIC [8] was 8 µg/mL (≈ 11 µM), the MIC [9] was 4 µg/mL (≈ 5.51 µM) and the “MRSA (MIC)” value [10] was less than 2 µg/mL. For the same molecule, the MIC [11] was 8 µg/mL (≈ 11 µM), the MIC [12] was 8 µg/mL (≈ 11 µM) and the MIC [13] was 4 µg/mL (≈ 5.51 µM). For the same molecule, the MIC [14] was 8 µg/mL (≈ 11 µM), the MIC [15] was 8 µg/mL (≈ 11 µM) and the “S. pyogenes (MIC)” value (S. pyogenes) was less than 2 µg/mL. It also gave an MIC [16] of 8 µg/mL (≈ 11 µM), an MIC [17] of 4 µg/mL (≈ 5.51 µM) and an MIC [18] of 8 µg/mL (≈ 11 µM). For the same molecule, the “E. coli (MIC)” value (E. coli) was 7 µg/mL, the MIC [19] was 8 µg/mL (≈ 11 µM) and the MIC [20] was 8 µg/mL (≈ 11 µM). The MIC [21] was 8 µg/mL (≈ 11 µM), the MIC [22] was 8 µg/mL (≈ 11 µM) and the “C. albicans (MIC)” value (C. albicans) was 25 µg/mL. It also gave an MIC [23] of 8 µg/mL (≈ 11 µM), an MIC [24] of 8 µg/mL (≈ 11 µM) and an MIC [25] of 8 µg/mL (≈ 11 µM). For the same molecule, the MIC [26] was 8 µg/mL (≈ 11 µM), the MIC [27] was 8 µg/mL (≈ 11 µM) and the MIC [28] was 2 µg/mL (≈ 2.75 µM).
